The record followed here is patent US11180529B2, “Alpha-v beta-6 integrin ligands and uses thereof” (Arrowhead Pharmaceuticals, Inc., priority 2016, dated 2021).

Non-standard residues stand in square brackets, D forms with d. No end group written: not given here. Cit = NC(=O)NCCC[C@H](N)C(=O)O; R(Me)2 = dimethyl-arginine; Abu = CC[C@H](N)C(=O)O; Aib = CC(C)(N)C(=O)O

The subject of assay [1] is H2009 (human lung epithelial adenocarcinoma) cells, αvβ6 integrin expressing. In words: αvβ6 ligand binding, flow cytometry of Cy5-labeled ligand-polymer conjugates, H2009 αvβ6 positive cells. It is filed as cell-based. The following applies: Cy5-polymer conjugate 5 μg/ml, 37° C., 3 h, specific MFI ratio = sample MFI/no-ligand MFI. As for the experimental part: (§1) Each αvβ6 ligand was attached to a reversibly modified 1170-100B polymer cargo molecule. The 1170-100B polymer cargo molecule (a 56:44 ethoxyethylamine acrylate:propyl acrylate copolymer having a MW of about 45000) was labeled with Cy5 (NHS linker) and combined with aldehyde-PEG24-ACit at a weight ratio of 2:1 (polymer:aldehyde-PEG24-ACit) in 50 mM HEPES pH 9.0 buffer for 1 h at RT to form (aldehyde-PEG24-ACit)n-1170-100B wherein n is an integer greater than 0. Typically, n was about 10.
(§2) The aldehyde-PEG24-ACit-modified polymer was then reacted with PEG12-ACit at a weight ratio of 1:8 (polymer:PEG12-ACit) in 50 mM HEPES, pH 9.0 buffer for 1 h at RT to form (aldehyde-PEG24-ACit)n-1170-100B-(CitA-PEG12)m, wherein m is an integer greater than 0.
(§3) The modified polymer was then purified using a sephadex G-50 spin column and concentration determined:
(§4) Each αvβ6 ligand was modified with HyNic to facilitate conjugation to the cargo molecule. Purified polymer was combined with αvβ6 ligand-(PEG)8-K-HyNic at a weight ratio of 1:1.9 (polymer: αvβ6 ligand) in 50 mM NaOAC-HOAc, pH 5.0 buffer at RT overnight to form the αvβ6 ligand-polymer conjugate. The αvβ6 ligand-polymer conjugate was purified using a sephadex G-50 spin column.
Conjugation efficiency was quantified by measuring Absorbance of the αvβ6-polymer conjugate at 354 nm using an extinction coefficient of […] M^−1 cm^−1 for bis-aryl hydrazone bond.
αvβ6-polymer conjugates were diluted with isotonic glucose solution to desired concentrations for further analysis.
To assess for specificity of binding of the αvβ6 ligands to the αvβ6 integrin, each αvβ6 ligand or negative control peptide was conjugated to a Cy5-labeled polymer (as described above) and evaluated for binding to cells. […] H2009 (human lung epithelial adenocarcinoma) and CAPAN-2 (human pancreas adenocarcinoma) cells served as the αvβ6 positive-control cell lines. Cells were detached from culturing flasks with Accutase, washed in PBS, and seeded into 5 ml polystyrene round-bottom tubes at 200,000 cells in 200 μl complete media (culturing media with supplements and fetal calf serum). αvβ6 ligand-polymer conjugates or no-ligand-polymer conjugates were added at 5 μg/ml (polymer-Cy5 concentration) to cells, mixed and incubated at 37° C. for 3 h. Incubation at 37° C. facilitated ligand/receptor interaction which may result in static binding to the extracellular cell surface and/or internalized ligand/receptor complexes. The mixture was re-suspended at 1 h intervals. Following a 3 h incubation, cells were washed 2× with 4 ml chilled buffer (PBS-2% FCS) and re-suspended in 200 μl buffer containing 10 μM SYTOX blue stain for live/dead cell gating. Samples were analyzed on a BD Biosciences Canto II cytometer equipped with a violet (405 nm), blue (488 nm) and red (633 nm) lasers. Viable cells were initially gated as the SYTOX blue negative population on the C detector with the violet laser. These viable cells were then assessed for conjugate binding/uptake with the red laser as the Mean Fluorescence Intensity (MFI) of the Cy5 fluorophore. Data analyses were performed with FlowJo v10.1 software. A specific MFI Ratio (sMFIr) for each αvβ6 ligand was determined by the formula: specific sample MFI value/no-ligand MFI value.
Background: In flow cytometry, cells or beads pass a laser one at a time.

For assay [2], the system named is SKOV3 (human ovarian carcinoma) cells, very low αvβ6 cell surface expression. Kind of assay: αvβ6 ligand binding, flow cytometry of Cy5-labeled ligand-polymer conjugates, SKOV3 negative-control cells. It is filed as cell-based. The following applies: Cy5-polymer conjugate 5 μg/ml, 37° C., 3 h; specific MFI ratio = sample MFI/no-ligand MFI. As for the experimental part: as §1, §2, §3, §4
Conjugation efficiency was quantified by measuring Absorbance of the αvβ6-polymer conjugate at 354 nm using an extinction coefficient of […] M^−1 cm^−1 for bis-aryl hydrazone bond. […]
To assess for specificity of binding of the αvβ6 ligands to the αvβ6 integrin, each αvβ6 ligand or negative control peptide was conjugated to a Cy5-labeled polymer (as described above) and evaluated for binding to cells. […] Samples were analyzed on a BD Biosciences Canto II cytometer equipped with a violet (405 nm), blue (488 nm) and red (633 nm) lasers. […] These viable cells were then assessed for conjugate binding/uptake with the red laser as the Mean Fluorescence Intensity (MFI) of the Cy5 fluorophore. […] A specific MFI Ratio (sMFIr) for each αvβ6 ligand was determined by the formula: specific sample MFI value/no-ligand MFI value.

Regarding “CH3CH2-RGDLAAbuLCitAib (CH3CH2-RGDLA[Abu]L[Cit][Aib])”, in assay [1], the “MFI H2009” value turned out to be 4.4.

Take “CH3(CH2)4-RGDLAAbuLCitAib ({CH3(CH2)4}-RGDLA[Abu]L[Cit][Aib])”: the “MFI H2009” value in assay [1] was determined as 4.1.

For “Dap(guanidino)-GDLATLRQL ({Dap(guanidino)}-GDLATLRQL)”, the “MFI SKOV3” value in assay [2] was found to be 1.4. Further, the “MFI H2009” value in assay [1] amounted to 3.4. Regarding “CH3(CH2)2-RGDLAAbuLCitAib ({CH3(CH2)2}-RGDLA[Abu]L[Cit][Aib])”, the “MFI H2009” value in assay [1] turned out to be 3.9. Consider “Ac-R(Me)2GDLATLRQL (Ac-[R(Me)2]GDLATLRQL) [negative control peptide]”, for which the “MFI SKOV3” value in assay [2] is reported as 0.9. The “MFI H2009” value in assay [1] was 1; in assay [1] (listed as AcR(Me)2GDLATLRQL) it was “did not show significant binding”. For “des-amino-RGDLATLRQL ({des‑amino}-RGDLATLRQL; not fully specified (residue 1); printed as des-amino-RGDLATLRQL)”, the “MFI SKOV3” value in assay [2] was determined as 0.8. In assay [1], the “MFI H2009” value worked out at 1.1. Take “meta-guanidino-benzoic-GDLATLRQL ({meta‑guanidino‑benzoic}-GDLATLRQL)”: the “MFI H2009” value in assay [1] is recorded as 4.5. Still for that read-out and setting: next, “CH3(CH2)3-RGDLAAbuLCitAib ({CH3(CH2)3}-RGDLA[Abu]L[Cit][Aib])”: 4.7.
